Holding throughout (assay type): physicochemical
The nature of data set [1]: Interfacial tension (IFT) by spinning drop interfacial tensiometer. The conditions noted are these: 0.10 wt % surfactant, 95° C., spinning 1 hour; for IFT, BRINE 1: Brine 1: NaCl 3.0%, CaCl2-2H2O 1.0%, MgCl2-6H2O 1.0%; for IFT, BRINE 2: Brine 2: NaCl 1.0%; for IFT, BRINE 3: Brine 3: NaCl 5.0%; for IFT, BRINE 4: Brine 4: NaCl 10%; for IFT, BRINE 5: Brine 5: NaCl 20%. How it is done: (§1) In all cases the surfactant formulation consisted of 30% by weight surfactant, 25% by weight ethylene glycol monobutyl ether (co-surfactant/solvent), and 45% by weight water. Also in all cases except where noted the surfactant formulation was added to the injection brine at a concentration of 0.10 weight percent. These examples use surfactants containing only ethylene oxide in the alcohol ether carboxylate although products containing propylene oxide and ethylene oxide give good results in certain applications.
(§2) Table II is the brine compositions that were used for the IFT testing to show the effect of total dissolved solids and divalent ion concentration on the IFT obtained using various surfactants.
All IFTs were obtained using a University of Texas Model 500 spinning drop interfacial tensiometer after spinning at 95° C. for 1 hour.

Data set [2] in a line: Brine solubilities of surfactant concentrates. The following applies: 5.0% by weight surfactant concentrate, 30° C.; for Brine solubility, BRINE 1: Brine 1: NaCl 3.0%, CaCl2-2H2O 1.0%, MgCl2-6H2O 1.0%; for Brine solubility, BRINE 2: Brine 2: NaCl 1.0%; for Brine solubility, BRINE 3: Brine 3: NaCl 5.0%; for Brine solubility, BRINE 4: Brine 4: NaCl 10%; for Brine solubility, BRINE 5: Brine 5: NaCl 20%. How it is done:
as §1, §2
Table III compares the solubilities obtained with 5.0% by weight of various surfactant concentrates in the 5 brines at 30° C.

Data set [3] in a line: Static adsorption test. An excerpt:
Table VII compares the adsorption of the composition of this invention surfactant B with a 1:1 molar mixture of surfactant D and surfactant E to show the effectiveness of having both the sulfonate and ether carboxylate on one molecule. 0.2 wt % surfactant D and 0.2 wt % surfactant E alone were also included to correct for the amount of each of these surfactants adsorbed. All tests were done using 0.20 wt % total surfactant in Brine 2. The static adsorption was run by mixing 50.0 grams of surfactant solution with 10.0 grams of 200 mesh beach sand on a wrist action shaker for 16 hours and then determining the amount of surfactant remaining compared to the original amount added.

[4] abbreviates: 0.20 wt % total surfactant in Brine 2, 16 hours.

For the substance “Sodium salt of carboxylated oleyl alcohol with 2 moles of EO. [Surfactant C]”, in data set [1], the “IFT, BRINE 1” value is given as 0.769 mN/m; the “IFT, BRINE 2” value came to 0.070 mN/m; the “IFT, BRINE 3” value came to 0.090 mN/m; the “IFT, BRINE 4” value came to 0.122 mN/m. For the same substance, in data set [1], the “IFT, BRINE 5” value is 0.256 mN/m. In data set [2], the “Brine solubility, BRINE 1” value is “dis-”; the “Brine solubility, BRINE 2” value is “soluble”; the “Brine solubility, BRINE 3” value is “soluble”; the “Brine solubility, BRINE 4” value is on record as “soluble”. Further, the “Brine solubility, BRINE 5” value in data set [2] is “dis-”.
Consider “Sodium salt of carboxylated oleyl alcohol with 9 moles of EO. [Surfactant D]”, for which, in data set [3] (setting [4]), the “% adsorbed” value was 78% and the “amount adsorbed in mg surfactant/gram sand” value was 7.8 mg/g. In data set [3] (of 0.100 g original wt, 0.20 wt % total surfactant in Brine 2, 50.0 g solution with 10.0 g sand, 16 hours), this substance gave an Amount remaining of 0.022. The same substance showed an Adsorbed in data set [3] (of 0.100 g original wt, 0.20 wt % total surfactant in Brine 2, 16 hours) of 0.078. Moreover, in data set [1], the “IFT, BRINE 1” value was 0.066 mN/m; the “IFT, BRINE 2” value turned out to be 0.031 mN/m; the “IFT, BRINE 3” value came out at 0.022 mN/m; the “IFT, BRINE 4” value is listed as 0.020 mN/m. The “IFT, BRINE 5” value in data set [1] was determined as 0.020 mN/m. Also, in data set [2], the “Brine solubility, BRINE 1” value was “soluble”; the “Brine solubility, BRINE 2” value is “soluble”; the “Brine solubility, BRINE 3” value is on record as “soluble”; the “Brine solubility, BRINE 4” value is given as “soluble”. Besides, the “Brine solubility, BRINE 5” value in data set [2] is given as “soluble”.
